Assay results from patent US20230159496A1, “COMPOUNDS AND METHODS FOR MODULATING SPLICING” (REMIX THERAPEUTICS INC., priority 2020, published 2023).
Like-named read-outs stand apart in the source and are kept apart here.

Legend:
Format in all cases: cell-based
[1] = tested on: HTT mRNA; test: Splicing assay (RT-qPCR) monitoring HTT canonical junction (CJ) and alternative junction (AJ) mRNA isoforms
How it was run: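 A673 or K562 cells treated 24 h at 37 °C with an 11-point 3-fold dilution (top 10 uM final, DMSO ≤0.25%). Lysates assayed by one-step RT-qPCR for HTT CJ and AJ isoforms, normalized to GAPDH, GUSB (K562) or PPIA (A673).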

[2] = tested on: HTT CJ mRNA; test: Gene panel canonical junction qPCR assay, HTT; details: read-out: HTT IC50
How it was run: (§1)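 A673 or K562 cells were treated for 24 h at 37 °C with an 11-point 3-fold dilution, top dose 10 uM, DMSO ≤0.25%. Canonical junction mRNA in lysates was quantified by one-step RT-qPCR and normalized to GAPDH, GUSB or PPIA.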

[3] = tested on: SMN2 CJ mRNA; test: Gene panel canonical junction qPCR assay, SMN2; details: read-out: SMN2 IC50
How it was run: as §1

[4] = tested on: Target C CJ mRNA; test: Gene panel canonical junction qPCR assay, Target C; details: read-out: Target C IC50
Method: The expression of a target mRNA was measured by detecting the formation of an exon-exon junction in the canonical transcript (CJ). A compound mediated exon-inclusion event was detected by observing an increase in formation of a new junction with an alternative exon (AJ). Real-time qPCR assays were used to detect these splicing switches and interrogate the potency of various compounds towards different target genes. A high-throughput real time quantitative PCR (RT-qPCR) assay was developed to measure these two isoforms of the mRNA (CJ and AJ) for an exemplary gene, HTT, together with a control housekeeping gene, GAPDH or GUSB or PPIA, used for normalization. Briefly, the A673 or K562 cell line was treated with various compounds described herein (e.g., compounds of Formula (I)). After treatment, the levels of the HTT mRNA targets were determined from each sample of cell lysate by cDNA synthesis followed by qPCR. The A673 cell line was cultured in DMEM with 10% FBS. Cells were diluted with full growth media and plated in a 96-well plate (15,000 cells in 100 ul media per well). The plate was incubated at 37° C. with 5% CO2 for 24 hours to allow cells to adhere. An 11-point 3-fold serial dilution of the compounds was made in DMSO then diluted in media in an intermediate plate. Compounds were transferred from the intermediate plate to the cell plate with the top dose at a final concentration of 10 uM in the well. Final DMSO concentration was kept at or below 0.25%. The cell plate was returned to the incubator at 37° C. with 5% CO2 for an additional 24 hours. The K562 cell line was cultured in IMDM with 10% FBS. For K562, cells were diluted with full growth media and plated in either a 96-well plate (50,000 cells in 50 uL media per well) or a 384-well plate (8,000-40,000 cells in 45 uL media per well). An 11-point 3-fold serial dilution of the compounds were made in DMSO then diluted in media in an intermediate plate. Compound was transferred from the intermediate plate to the cell plate with the top dose at a final concentration of 10 uM in the well. Final DMSO concentration was kept at or below 0.25%. Final volume was 100 uL for 96-well plate and 50 uL for 384-well plate. The cell plate was then placed in an incubator at 37° C. with 5% CO2 for 24 hours. The cells were then gently washed with 50 uL-100 uL cold PBS before proceeding to addition of lysis buffer. 30 uL-50 uL of room temperature lysis buffer with DNAse I (and optionally RNAsin) was added to each well. Cells were shaken/mixed thoroughly at room temperature for 5-10 minutes for lysis to take place and then 3 uL-5 uL of room temperature stop solution was added and wells were shaken/mixed again. After 2-5 minutes, the cell lysate plate was transferred to ice for RT-qPCR reaction setup. The lysates could also be frozen at −80° C. for later use. In some cases, a direct lysis buffer was used. An appropriate volume of 3× lysis buffer (10 mM Tris, 150 mM NaCl, 1.5%-2.5% Igepal and 0.1-1 U/uL RNAsin, pH 7.4) was directly added to either K562 or A673 cells in media and mixed by pipetting 3 times. The plates were then incubated at room temperature with shaking/rocking for 20-50 minutes to allow for lysis to take place. After this time, the cell lysate plate was transferred to ice to set up for the RT-qPCR reactions. The lysates could also be frozen at −80° C. for later use. To set up 10 uL RT-qPCR reactions, cell lysates were transferred to 384-well qPCR plates containing the master mix according to the table below. The plates were sealed, gently vortexed, and spun down before the run. The volumes were adjusted accordingly in some instances where the reaction was carried in 20 uL. The table below summarizes the components of the RT-qPCR reactions: The RT-qPCR reaction was performed using a QuantStudio (ThermoFisher) under the following fast cycling conditions. All samples and standards were analyzed at least in duplicate.

[5] = decrease in CJ mRNA (50% response), A673 or K562 cells, 24 h treatment, top dose 10 uM, read-out: HTT CJ AC50
[6] = increase in AJ mRNA (50% response), A673 or K562 cells, 24 h treatment, top dose 10 uM, read-out: HTT AJ AC50
[7] = decrease in CJ mRNA levels, gene panel

| Compound | AC50 [1, 5] [nM] | AC50 [1, 6] [nM] | IC50 [2, 7] [nM] | IC50 [3, 7] [nM] | IC50 [4, 7] [nM] | AC50 ([1]; 24 h, read-out: HTT AJ AC50 (nM)) [nM] | AC50 ([1]; 24 h, read-out: HTT CJ AC50 (nM)) [nM] | IC50 [2] [nM] | IC50 [3] [nM] | IC50 [4] [nM] |
| --- | --- | --- | --- | --- | --- | --- | --- | --- | --- | --- |
| Cc1cn2cc(-c3ccc4c(=O)n(C5CCNCC5)ncc4c3)cc(Cl)c2n1 [Compound 256] | 100 to 1000 | 100 to 1000 | 100 to 1000 | < 100 | > 10000 | – | – | – | – | – |
| Cc1cn2cc(-c3cc(F)c4c(=O)n(C5CCN(C)CC5)cnc4c3)cc(F)c2n1 [Compound 231, 5-fluoro-7-(8-fluoro-2-methylimidazo[1,2-a]pyridin-6-yl)-3-(1-methylpiperidin-4-yl)quinazolin-4(3H)-one] | 100 to 1000 | 100 to 1000 | 100 to 1000 | < 100 | 1000 to 10000 | – | – | – | – | – |
| Cc1cn2cc(-c3ccc4nc(NC5CCNCC5)[nH]c(=O)c4c3)cc(F)c2n1 [Compound 238] | > 10000 | > 10000 | > 10000 | > 10000 | > 10000 | – | – | – | – | – |
| Cc1cn2nc(-c3ccc4c(c3)CCN(C3CCNCC3)C4=O)nc2c(C)n1 [Compound 222] | 1000 to 10000 | 1000 to 10000 | 1000 to 10000 | 100 to 1000 | 1000 to 10000 | – | – | – | – | – |
| Cc1cn2cc(-c3ccc4c(=O)n(C5CCNCC5)ccc4c3)cc(F)c2n1 [Compound 276, 6-(8-fluoro-2-methylimidazo[1,2-a]pyridin-6-yl)-2-(piperidin-4-yl)isoquinolin-1(2H)-one] | < 100 | < 100 | < 100 | < 100 | < 100 | – | – | – | – | – |
| Cc1cn2cc(-c3ccc4c(=O)n(C5CCN(C)CC5)cnc4c3)cc(F)c2n1 [Compound 207, 7-(8-fluoro-2-methylimidazo[1,2-a]pyridin-6-yl)-3-(1-methylpiperidin-4-yl)quinazolin-4(3H)-one] | 1000 to 10000 | 1000 to 10000 | 1000 to 10000 | 100 to 1000 | 1000 to 10000 | – | – | – | – | – |
| Cc1cc(-c2ccc3c(c2)CCN(C2CCNCC2)C3=O)cc2cn(C)nc12 [Compound 219] | 1000 to 10000 | 1000 to 10000 | 1000 to 10000 | < 100 | 1000 to 10000 | – | – | – | – | – |
| Cc1cn2nc(-c3ccc4c(=O)n([C@@H]5CCN[C@H](C)C5)ncc4c3)cc(C)c2n1 [Compound 272] | < 100 | 100 to 1000 | < 100 | < 100 | 100 to 1000 | – | – | – | – | – |
| CN1CCC(n2cnc3cc(-c4ccc5nn(C)cc5c4)ccc3c2=O)CC1 [Compound 208, 7-(2-methyl-2H-indazol-5-yl)-3-(1-methylpiperidin-4-yl)quinazolin-4(3H)-one] | > 10000 | 1000 to 10000 | > 10000 | 100 to 1000 | > 10000 | – | – | – | – | – |
| Cc1cn2nc(-c3ccc4c(=O)n([C@@H]5CCN(C)[C@H](C)C5)ncc4c3)cc(C)c2n1 [Compound 277] | 100 to 1000 | 100 to 1000 | 100 to 1000 | < 100 | 1000 to 10000 | – | – | – | – | – |
| Cc1cn2cc(-c3ccc4nc(N5CCNC6(CC6)C5)[nH]c(=O)c4c3)cc(F)c2n1 [Compound 191, 6-(8-fluoro-2-methylimidazo[1,2-a]pyridin-6-yl)-2-(4,7-diazaspiro[2.5]octan-7-yl)quinazolin-4(3H)-one] | > 10000 | > 10000 | > 10000 | > 10000 | > 10000 | – | – | – | – | – |
| CN1CCC(Nc2ccc3c(=O)n(-c4ccc5nn(C)cc5c4)cnc3c2)CC1 [Compound 163, 3-(2-methyl-2H-indazol-5-yl)-7-((1-methylpiperidin-4-yl)amino)quinazolin-4(3H)-one] | – | – | – | – | – | > 10000 | > 10000 | > 10000 | > 10000 | > 10000 |
| Cn1cc2cc(-n3cnc4cc(C5CCNCC5)ccc4c3=O)ccc2n1 [Compound 172, 3-(2-methyl-2H-indazol-5-yl)-7-(piperidin-4-yl)quinazolin-4(3H)-one] | > 10000 | > 10000 | > 10000 | > 10000 | > 10000 | – | – | – | – | – |
| Cc1cn2nc(-c3ccc4nc(N5CCNC6(CC6)C5)[nH]c(=O)c4c3)cc(C)c2n1 [Compound 190] | 100 to 1000 | 100 to 1000 | 100 to 1000 | 100 to 1000 | 100 to 1000 | – | – | – | – | – |
| Cc1cn2nc(-c3ccc4c(=O)n(C5CCN(C)CC5)cnc4c3)nc2c(C)n1 [Compound 288, 7-{6,8-dimethyl-[1,2,4]triazolo[1,5-a]pyrazin-2-yl}-3-(1-methylpiperidin-4-yl)quinazolin-4-one] | 1000 to 10000 | 1000 to 10000 | 1000 to 10000 | 1000 to 10000 | 1000 to 10000 | – | – | – | – | – |
| Cc1cc(-c2cc(F)c3c(=O)n(C4CCN(C)CC4)cnc3c2)cc2cn(C)nc12 [Compound 233, 7-(2,7-dimethyl-2H-indazol-5-yl)-5-fluoro-3-(1-methylpiperidin-4-yl)quinazolin-4(3H)-one] | 100 to 1000 | 100 to 1000 | 100 to 1000 | < 100 | 1000 to 10000 | – | – | – | – | – |
| Cc1cn2cc(-c3ccc4c(=O)n(C5CCNCC5)cnc4c3)cc(F)c2n1 [Compound 205, 7-(8-fluoro-2-methylimidazo[1,2-a]pyridin-6-yl)-3-(piperidin-4-yl)quinazolin-4(3H)-one] | 100 to 1000 | 100 to 1000 | 100 to 1000 | < 100 | 100 to 1000 | – | – | – | – | – |
| CCN1CCC(N2CCc3cc(-c4cc(C)c5nc(C)cn5n4)ccc3C2=O)CC1 [Compound 270] | 1000 to 10000 | 1000 to 10000 | 1000 to 10000 | 100 to 1000 | > 10000 | – | – | – | – | – |
